# Laboratory results reported in patent US20070142401A1, “Indolyl-pyrroledione derivatives for the treatment of neurological and vascular disorders related to beta-amyloid generation and/or aggregation” (NOVARTIS AG, priority 2003, published 2007).
# How the values were obtained:
# HEK/APPswe cells = experiment: MTS assay (cytotoxicity); assay type: cell-based; details: at concentrations below 1 microM
# Experimental: To determine cytotoxicity, cells are tested by the MTS colorimetric kit performed essentially according to the manufacturer's specifications (Promega, #G5430X). After collecting the conditioned medium for the sandwich ELISA, the rest of the conditioned medium is removed completely and replaced with 100 μl/well culture medium containing one fifth of MTS solution prepared as recommended in the kit. After 3 hours incubation at 37° C., absorbance is read at an OD of 490 nm with a reference wavelength set to 630 nm. Values are given as % metabolic rate (n=6). The 0% value is calculated from wells which had no cells, 100% from wells with an untreated cell layer
# Flt-2 = Flt-2 (Homo sapiens, UniProt P11362); experiment: cell-free enzyme assay Flt-2; assay type: biochemical
# Flt-2, sequence (P11362 22-822, species assumed): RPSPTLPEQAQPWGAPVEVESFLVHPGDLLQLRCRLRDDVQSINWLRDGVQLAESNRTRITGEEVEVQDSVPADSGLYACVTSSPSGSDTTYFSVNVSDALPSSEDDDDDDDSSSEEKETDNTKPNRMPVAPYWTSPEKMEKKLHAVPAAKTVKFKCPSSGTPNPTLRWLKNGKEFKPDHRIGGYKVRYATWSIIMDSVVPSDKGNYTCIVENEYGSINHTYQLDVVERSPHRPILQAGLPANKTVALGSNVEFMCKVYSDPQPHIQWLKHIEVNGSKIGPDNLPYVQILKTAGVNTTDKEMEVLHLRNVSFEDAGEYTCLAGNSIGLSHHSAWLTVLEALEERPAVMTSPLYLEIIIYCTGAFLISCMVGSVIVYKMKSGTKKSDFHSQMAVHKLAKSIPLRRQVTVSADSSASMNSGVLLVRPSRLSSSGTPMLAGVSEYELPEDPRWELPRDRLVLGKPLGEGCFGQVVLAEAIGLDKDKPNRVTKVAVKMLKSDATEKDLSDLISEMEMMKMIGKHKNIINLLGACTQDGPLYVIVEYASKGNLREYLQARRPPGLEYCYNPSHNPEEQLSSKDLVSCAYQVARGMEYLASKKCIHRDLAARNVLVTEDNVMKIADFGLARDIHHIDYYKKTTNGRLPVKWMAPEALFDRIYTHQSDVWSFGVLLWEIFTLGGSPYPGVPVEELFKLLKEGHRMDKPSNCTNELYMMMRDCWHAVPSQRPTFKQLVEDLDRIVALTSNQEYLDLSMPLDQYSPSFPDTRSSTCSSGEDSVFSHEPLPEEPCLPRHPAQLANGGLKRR
# Flt-3 = target: T1, Flt-3 (Homo sapiens, UniProt P36888); experiment: cell-free enzyme assay Flt-3; assay type: biochemical
# T1 sequence (P36888 27-993): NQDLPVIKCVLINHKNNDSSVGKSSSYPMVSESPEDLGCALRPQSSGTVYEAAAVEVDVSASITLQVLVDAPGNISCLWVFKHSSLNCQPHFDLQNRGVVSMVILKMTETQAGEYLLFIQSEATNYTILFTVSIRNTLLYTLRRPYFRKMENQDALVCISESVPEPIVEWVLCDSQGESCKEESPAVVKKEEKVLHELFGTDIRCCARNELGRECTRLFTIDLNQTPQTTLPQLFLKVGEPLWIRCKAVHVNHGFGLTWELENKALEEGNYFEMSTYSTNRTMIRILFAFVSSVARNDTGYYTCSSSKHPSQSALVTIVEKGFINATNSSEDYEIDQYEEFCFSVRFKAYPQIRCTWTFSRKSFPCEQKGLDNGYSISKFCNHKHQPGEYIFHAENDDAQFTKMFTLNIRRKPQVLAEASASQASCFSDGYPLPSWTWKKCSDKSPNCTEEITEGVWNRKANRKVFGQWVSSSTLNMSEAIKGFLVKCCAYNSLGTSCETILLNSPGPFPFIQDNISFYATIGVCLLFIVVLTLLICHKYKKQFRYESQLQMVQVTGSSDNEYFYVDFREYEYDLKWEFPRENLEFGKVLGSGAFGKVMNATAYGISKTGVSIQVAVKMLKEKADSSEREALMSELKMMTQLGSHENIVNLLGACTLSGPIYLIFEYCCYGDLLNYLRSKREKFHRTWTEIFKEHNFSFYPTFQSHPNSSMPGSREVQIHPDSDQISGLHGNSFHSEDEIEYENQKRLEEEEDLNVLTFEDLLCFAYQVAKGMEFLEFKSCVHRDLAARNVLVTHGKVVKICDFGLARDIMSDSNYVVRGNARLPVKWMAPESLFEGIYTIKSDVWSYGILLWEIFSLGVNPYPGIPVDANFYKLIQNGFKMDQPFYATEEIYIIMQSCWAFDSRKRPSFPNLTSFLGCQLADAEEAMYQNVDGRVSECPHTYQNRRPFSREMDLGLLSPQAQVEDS
# PKC gamma = PKC gamma (Homo sapiens, UniProt P05129); experiment: cell-free enzyme assay PKC gamma; assay type: biochemical
# PKC theta = PKC theta (Homo sapiens, UniProt Q04759); experiment: cell-free enzyme assay PKC theta; assay type: biochemical
# PKC theta, sequence (Q04759 whole entry): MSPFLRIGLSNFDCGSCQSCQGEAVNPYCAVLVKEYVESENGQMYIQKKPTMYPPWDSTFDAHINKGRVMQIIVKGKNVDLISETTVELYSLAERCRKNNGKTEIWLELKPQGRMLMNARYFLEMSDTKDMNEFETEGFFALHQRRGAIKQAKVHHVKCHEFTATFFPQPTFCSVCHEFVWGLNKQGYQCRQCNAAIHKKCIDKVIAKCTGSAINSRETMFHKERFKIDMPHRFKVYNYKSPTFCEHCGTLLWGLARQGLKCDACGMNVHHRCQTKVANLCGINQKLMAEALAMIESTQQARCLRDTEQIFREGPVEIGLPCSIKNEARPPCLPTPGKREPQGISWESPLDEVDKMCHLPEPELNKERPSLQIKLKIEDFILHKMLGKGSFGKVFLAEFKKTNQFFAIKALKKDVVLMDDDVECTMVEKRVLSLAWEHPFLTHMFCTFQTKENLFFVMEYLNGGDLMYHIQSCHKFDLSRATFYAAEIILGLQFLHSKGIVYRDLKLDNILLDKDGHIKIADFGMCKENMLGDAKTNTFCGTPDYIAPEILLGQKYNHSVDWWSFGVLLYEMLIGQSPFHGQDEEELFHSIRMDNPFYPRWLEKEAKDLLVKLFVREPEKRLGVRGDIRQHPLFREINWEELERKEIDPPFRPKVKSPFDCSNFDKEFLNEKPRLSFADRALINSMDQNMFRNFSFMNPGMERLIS
# Flt-4 = Flt-4 (Homo sapiens, UniProt P35916); experiment: cell-free enzyme assay Flt-4; assay type: biochemical
# KDR = KDR (Homo sapiens, UniProt P35968); experiment: cell-free enzyme assay KDR; assay type: biochemical
# PKC alpha = PKC alpha (Homo sapiens, UniProt P17252); experiment: cell-free enzyme assay PKC alpha; assay type: biochemical
# [1] = tested on: Aβ secretion in HEK/APPswe cells; experiment: Aβ secretion in HEK/APPswe cell culture medium (sandwich ELISA); assay type: cell-based; details: HEK/APPswe cell cultures, 24 hours after compound addition
# Experimental: HEK/APPswe cells are plated in microtiter plates precoated with 10 μg/ml poly-D-lysine at 12′000 cells/well in 100 μl/well DMEM medium supplemented with 10% FCS, 0.25 mg/ml G418 sulfate, 1% penicillin streptomycin. The following day, supernatant is replaced with 90 μl/well of fresh medium and 10 μl/well of compound diluted in culture medium are added. Two types of control wells are used: cell culture medium without cells plus 10 μl/well of all compound dilutions (background signals) and cell culture medium from untreated cells (positive control). 24 hours later after compound addition, conditioned medium is collected and Aβ levels determined by a specific sandwich ELISA.
# For the sandwich ELISA, the maxisorp microtiterplates are coated overnight at 4° C. with 100 μl/well of the monoclonal antibody 25H 10 diluted 1:1000 in PB for Aβ40 detection or monoclonal antibody B10E7 diluted 1:2750 for detection of Aβ42. […] After 1 hour incubation at room temperature wells are washed as described above and alkaline phosphatase activity is determined by adding 100 μl/well of diethanolamine buffer, pH 9.8 (100 mM diethanolamine, 1 mM MgCl2, pH adjusted to 9.8 with 2 M HCl) containing the chemiluminescent CSPD substrate (25 mM stock solution diluted 1:416) and the enhancer Emerald II (diluted 1:10). […] Samples are measured in triplicate. […]
# PKC epsilon = target: T2, PKC epsilon (Homo sapiens, UniProt Q02156); experiment: cell-free enzyme assay PKC epsilon; assay type: biochemical
# T2 sequence (Q02156 1-737): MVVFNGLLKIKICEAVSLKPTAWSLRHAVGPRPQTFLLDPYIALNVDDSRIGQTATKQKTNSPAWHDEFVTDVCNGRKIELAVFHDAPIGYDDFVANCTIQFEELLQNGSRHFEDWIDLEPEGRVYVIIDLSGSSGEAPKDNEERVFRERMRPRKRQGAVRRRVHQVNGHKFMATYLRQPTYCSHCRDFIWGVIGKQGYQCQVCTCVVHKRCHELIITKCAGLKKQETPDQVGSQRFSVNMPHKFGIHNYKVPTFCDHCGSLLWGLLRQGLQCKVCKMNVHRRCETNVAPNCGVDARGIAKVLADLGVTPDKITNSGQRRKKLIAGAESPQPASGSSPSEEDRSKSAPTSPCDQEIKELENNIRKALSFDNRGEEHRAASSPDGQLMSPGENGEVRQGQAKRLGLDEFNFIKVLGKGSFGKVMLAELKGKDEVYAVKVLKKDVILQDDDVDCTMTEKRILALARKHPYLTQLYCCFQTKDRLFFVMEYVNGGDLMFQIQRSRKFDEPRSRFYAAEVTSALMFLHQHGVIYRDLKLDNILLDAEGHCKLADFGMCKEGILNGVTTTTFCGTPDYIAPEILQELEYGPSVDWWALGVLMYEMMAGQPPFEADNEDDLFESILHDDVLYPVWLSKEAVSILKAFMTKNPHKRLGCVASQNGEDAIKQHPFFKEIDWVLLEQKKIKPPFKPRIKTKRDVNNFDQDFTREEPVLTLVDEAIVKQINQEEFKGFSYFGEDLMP
# Flt-1 = Flt-1 (Homo sapiens, UniProt P17948); experiment: cell-free enzyme assay Flt-1; assay type: biochemical
# Flt-1, sequence (P17948 27-1338, species assumed): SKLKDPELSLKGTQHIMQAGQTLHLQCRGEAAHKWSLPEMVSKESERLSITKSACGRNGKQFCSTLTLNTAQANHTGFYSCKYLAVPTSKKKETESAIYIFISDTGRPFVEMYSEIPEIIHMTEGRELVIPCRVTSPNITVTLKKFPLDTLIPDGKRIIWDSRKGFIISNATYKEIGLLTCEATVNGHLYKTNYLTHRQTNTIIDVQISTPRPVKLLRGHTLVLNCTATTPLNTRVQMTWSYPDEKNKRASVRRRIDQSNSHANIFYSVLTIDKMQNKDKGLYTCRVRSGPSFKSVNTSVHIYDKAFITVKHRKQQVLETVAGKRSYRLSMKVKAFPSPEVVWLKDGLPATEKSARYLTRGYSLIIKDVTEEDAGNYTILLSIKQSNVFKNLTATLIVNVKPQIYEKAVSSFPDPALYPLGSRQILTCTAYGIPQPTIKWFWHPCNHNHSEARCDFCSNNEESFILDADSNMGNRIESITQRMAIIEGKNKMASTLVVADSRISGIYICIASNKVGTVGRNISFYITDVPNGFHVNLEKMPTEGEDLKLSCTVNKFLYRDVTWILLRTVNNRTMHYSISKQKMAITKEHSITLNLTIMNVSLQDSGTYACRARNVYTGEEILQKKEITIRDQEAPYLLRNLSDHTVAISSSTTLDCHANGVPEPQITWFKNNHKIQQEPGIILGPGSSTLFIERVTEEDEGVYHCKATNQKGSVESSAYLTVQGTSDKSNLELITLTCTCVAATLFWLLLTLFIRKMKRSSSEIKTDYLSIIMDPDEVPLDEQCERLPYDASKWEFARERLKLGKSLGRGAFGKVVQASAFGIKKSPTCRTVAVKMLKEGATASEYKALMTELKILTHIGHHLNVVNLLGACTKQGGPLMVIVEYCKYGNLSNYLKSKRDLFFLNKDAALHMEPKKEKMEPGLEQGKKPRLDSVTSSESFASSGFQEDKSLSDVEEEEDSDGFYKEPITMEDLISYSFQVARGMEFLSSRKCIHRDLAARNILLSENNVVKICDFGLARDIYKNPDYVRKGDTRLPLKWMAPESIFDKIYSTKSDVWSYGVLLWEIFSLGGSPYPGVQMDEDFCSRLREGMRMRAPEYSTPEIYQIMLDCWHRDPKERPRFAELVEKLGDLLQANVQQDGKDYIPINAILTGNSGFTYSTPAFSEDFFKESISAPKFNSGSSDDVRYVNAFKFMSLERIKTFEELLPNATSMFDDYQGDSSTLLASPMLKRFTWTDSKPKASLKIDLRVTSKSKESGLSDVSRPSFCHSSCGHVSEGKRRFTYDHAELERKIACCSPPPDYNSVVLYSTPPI
# PKC beta = PKC beta (Homo sapiens, UniProt P05771); experiment: cell-free enzyme assay PKC beta; assay type: biochemical
# PKC beta, sequence (P05771 whole entry, species assumed): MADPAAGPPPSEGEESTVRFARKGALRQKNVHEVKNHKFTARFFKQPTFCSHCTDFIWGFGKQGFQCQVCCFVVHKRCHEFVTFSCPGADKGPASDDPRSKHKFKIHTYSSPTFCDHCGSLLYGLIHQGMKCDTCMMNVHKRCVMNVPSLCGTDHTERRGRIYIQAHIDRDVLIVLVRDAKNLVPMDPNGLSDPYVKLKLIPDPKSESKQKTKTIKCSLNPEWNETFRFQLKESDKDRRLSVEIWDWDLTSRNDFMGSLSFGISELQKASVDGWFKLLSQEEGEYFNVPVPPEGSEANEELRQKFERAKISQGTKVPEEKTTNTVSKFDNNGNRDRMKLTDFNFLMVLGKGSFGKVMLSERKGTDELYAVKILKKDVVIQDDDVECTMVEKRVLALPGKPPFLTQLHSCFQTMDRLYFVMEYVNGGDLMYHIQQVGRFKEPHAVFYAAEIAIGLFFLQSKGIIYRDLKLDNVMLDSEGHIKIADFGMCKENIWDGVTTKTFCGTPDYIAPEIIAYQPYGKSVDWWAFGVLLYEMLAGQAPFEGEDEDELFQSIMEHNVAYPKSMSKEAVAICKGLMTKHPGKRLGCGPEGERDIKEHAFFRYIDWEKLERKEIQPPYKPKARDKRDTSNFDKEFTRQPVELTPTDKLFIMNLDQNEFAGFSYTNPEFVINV
# CDK-1 = CDK-1 (Homo sapiens, UniProt P06493); experiment: cell-free enzyme assay CDK-1; assay type: biochemical
compound,measurement,setting,value
"CN1CCN(c2cc(C3=C(c4c[nH]c5ccccc45)C(=O)NC3=O)c(Cl)c(C(F)(F)F)c2)CC1 [Example 2, 3-[2-Chloro-5-(4-methyl-piperazin-1-yl)-3-trifluoromethyl-phenyl]-4-(1H-indol-3-yl)-pyrrole-2,5-dione]",effect on cellular viability,HEK/APPswe cells,without having any effect on cellular viability
same,"activity in cell-free enzyme assay, Flt-2",Flt-2,<10 µM
same,"activity in cell-free enzyme assay, Flt-3",Flt-3,<10 µM
same,"activity in cell-free enzyme assay, PKC gamma",PKC gamma,<500 nM
same,"activity in cell-free enzyme assay, PKC theta",PKC theta,186 nM
same,"activity in cell-free enzyme assay, Flt-4",Flt-4,<10 µM
same,"activity in cell-free enzyme assay, KDR",KDR,<10 µM
same,"activity in cell-free enzyme assay, PKC alpha",PKC alpha,21 nM
same,concentration giving a clear reduction of Aβ secretion in the medium,[1],below 1 microM
same,"activity in cell-free enzyme assay, PKC epsilon",PKC epsilon,514 nM
same,"activity in cell-free enzyme assay, Flt-1",Flt-1,<10 µM
same,"activity in cell-free enzyme assay, PKC beta",PKC beta,30 nM
same,"activity in cell-free enzyme assay, CDK-1",CDK-1,<10 µM
